Measured values as given in patent US7368578B2, “Five-membered heterocyclic compounds” (Takeda Pharmaceutical Company Limited, priority 2002, dated 2008).

Experiments:
human PPARγ1 = biological target: T1, human PPARγ1 (Homo sapiens, UniProt P37231); test: Human PPARγ1 antagonist assay (luciferase reporter in PPARγ:RXRα:4ERPP/CHO-K1 cells); format: cell-based; details: 10 nM compound A as stimulant, luciferase activity, 24 hrs, read-out: Inhibitory rate (%); for inhibition at 1 µM: test compound 10^−6 M
T1 construct: expressed in transfected cells; host or cells: CHO-K1 cells stably transfected with pVgRXR2-hPPARγ and reporter plasmid pGL3-4ERPP-TK neo
T1 sequence (P37231 1-477 isoform P37231-2): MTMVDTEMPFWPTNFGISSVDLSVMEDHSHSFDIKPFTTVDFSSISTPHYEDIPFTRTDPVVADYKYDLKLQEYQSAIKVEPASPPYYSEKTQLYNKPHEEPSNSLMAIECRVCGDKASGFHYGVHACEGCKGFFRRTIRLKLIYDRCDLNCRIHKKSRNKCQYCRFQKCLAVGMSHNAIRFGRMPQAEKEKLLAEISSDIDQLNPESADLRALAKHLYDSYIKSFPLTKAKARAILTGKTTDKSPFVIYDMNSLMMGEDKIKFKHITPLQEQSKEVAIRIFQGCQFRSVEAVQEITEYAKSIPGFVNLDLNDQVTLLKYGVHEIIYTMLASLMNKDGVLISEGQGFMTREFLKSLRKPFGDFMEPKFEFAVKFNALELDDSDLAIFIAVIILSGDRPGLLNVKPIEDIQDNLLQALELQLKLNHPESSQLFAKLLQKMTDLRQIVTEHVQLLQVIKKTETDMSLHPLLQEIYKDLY
T1 sequence (P19793 1-462 partner): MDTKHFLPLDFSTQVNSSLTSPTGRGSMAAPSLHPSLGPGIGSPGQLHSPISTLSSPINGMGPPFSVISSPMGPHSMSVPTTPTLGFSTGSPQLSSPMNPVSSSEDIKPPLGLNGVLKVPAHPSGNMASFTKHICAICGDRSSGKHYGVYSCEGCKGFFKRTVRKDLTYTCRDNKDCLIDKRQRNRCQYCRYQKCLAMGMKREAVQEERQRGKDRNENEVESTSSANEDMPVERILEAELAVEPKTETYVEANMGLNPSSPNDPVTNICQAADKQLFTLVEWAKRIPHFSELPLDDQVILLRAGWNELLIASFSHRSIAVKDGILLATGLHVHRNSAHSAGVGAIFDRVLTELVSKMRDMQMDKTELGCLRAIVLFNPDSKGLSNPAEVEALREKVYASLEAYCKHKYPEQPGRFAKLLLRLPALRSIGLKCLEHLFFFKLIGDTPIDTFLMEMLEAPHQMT
Procedure: PPARγ:RXRα:4ERPP/CHO-K1 cells (obtained in Reference Example 5a) cultured in Ham's F-12 medium (GIBCO, Inc.) supplemented with 10% fetal bovine serum (TRACE SCIENTIFIC, Ltd.) were seeded in a well of a 96 well white plate at 2×10^4 cells/well and cultured under 37° C. 5% CO2 conditions for 24 hrs. After removal of the medium, Ham's F-12 medium (GIBCO) containing 60 μl of 0.1% BSA (not containing fatty acid) (Wako Pure Chemical Industries, Ltd.), 20 μl of 10^−5M or 10^−6 M test compound and 20 μl of compound A having a final concentration of 10 nM as a stimulant were added, and the cells were cultured under 37° C. 5% CO2 conditions for 24 hrs. After removal of the medium, 40 μl of Pickagene LT7.5 (Wako Pure Chemical Industries, Ltd.) 2-fold diluted with HBSS (HANKS' BALANCED SALT SOLUTION) (BIO WHITTAKER Inc.) was added. After stirring, luciferase activity was measured using 1420 ARVO Multilabel Counter (Wallac, Inc.). In addition, a test similar to the above was conducted for the non-use of the aforementioned test compound alone and for the non-use of the aforementioned test compound and compound A to determine the luciferase activity.
The human PPARγ1 antagonistic activity of the test compound was evaluated using percentages (% inhibition) wherein the luciferase activity when 10 nM compound A alone was added was 0%, and the luciferase activity when the test compound and compound A were not added was 100%. The concentration of the test compound was 10^−5 M for the compounds of Example 42 and 315 and 10^−6 M for other test compounds.
After a CHO-K1 cell cultured in a cell culture flask (150 cm^2) (produced by Corning Costar Corporation, USA) containing Ham's F-12 medium (produced by Life Technologies, Inc., USA) supplemented with 10% fetal bovine serum (produced by Life Technologies, Inc., USA) was detached by treating with 0.5 g/L trypsin-0.2 g/L EDTA (ethylenediaminetetraacetic acid) (produced by Life Technologies, Inc., USA), the cell was washed with PBS (phosphate-buffered saline) (produced by Life Technologies, Inc., USA), centrifuged (1000 rpm, 5 minutes), and then suspended in PBS. Subsequently, the DNA was introduced into the cells under the conditions shown below using GENE PULSER (produced by Bio-Rad Laboratories, USA).
Namely, to a cuvette having a 0.4 cm gap, added were 8×10^6 cells and 10 μg of plasmid pVgRXR2-hPPARγ obtained in Reference Example 4a and 10 μg of reporter plasmid pGL3-4ERPP-TK neo obtained in Reference Example 2a, which was subjected to electroporation at the voltage of 0.25 kV under the capacitance of 960 μF. Subsequently, the cell was transferred into a Ham's F-12 medium containing 10% fetal bovine serum and cultured for 24 hours and then the cells were detached again and centrifuged, and then suspended in HAM F12 medium containing 10% fetal bovine serum supplemented with 500 μg/ml of GENETICIN (produced by Life Technologies, Inc., USA) and 250 μg/ml of ZEOCIN (produced by Invitrogen, USA). The obtained suspension was diluted to the density of 10^4 cells/ml and inoculated to a 96-well plate (produced by Corning Costar Corporation, USA), which was cultured in a CO2 gas incubator at 37° C., whereby obtaining a GENETICIN- and ZEOCIN-resistant transformant. Subsequently, after the transformant cell line thus obtained was cultured in a 24-well plate (produced by Corning Costar Corporation, USA), selected was a cell line in which the luciferase was expressed and induced, i.e., PPARγ:RXRα:4ERPP/CHO-K1 cell by the addition of 10 μM pioglitazone hydrochloride.

SMILES	melting point	inhibition at 10 µM (human PPARγ1; test compound 10^−5 M)	inhibition at 1 µM (human PPARγ1)
Cc1oc(-c2ccco2)nc1COc1ccc(COc2nn(Cc3ccccc3)cc2C=O)cn1 [Example 42, 1-benzyl-3-[(6-{[2-(2-furyl)-5-methyl-1,3-oxazol-4-yl]methoxy}-3-pyridinyl)methoxy]-1H-pyrazole-4-carbaldehyde]	104 to 105 °C	50%	
CCOC(=O)c1cn(-c2ccccc2)nc1OCc1ccc(OCc2nc(-c3ccco3)oc2C)c(OC)c1 [Example 72, ethyl 3-[(4-{[2-(2-furyl)-5-methyl-1,3-oxazol-4-yl]methoxy}-3-methoxybenzyl)oxy]-1-phenyl-1H-pyrazole-4-carboxylate]	150 to 151 °C		62%
COc1cc(COc2nn(-c3ccccc3)cc2CO)ccc1OCc1nc(-c2ccco2)oc1C [Example 75, {3-[(4-{[2-(2-furyl)-5-methyl-1,3-oxazol-4-yl]methoxy}-3-methoxybenzyl)oxy]-1-phenyl-1H-pyrazol-4-yl}methanol]			70%
COc1cc(COc2nn(-c3ccccc3)cc2C=O)ccc1OCc1nc(-c2ccco2)oc1C [Example 76, 3-[(4-{[2-(2-furyl)-5-methyl-1,3-oxazol-4-yl]methoxy}-3-methoxybenzyl)oxy]-1-phenyl-1H-pyrazole-4-carbaldehyde]	137 to 138 °C		63%
CCOP(=O)(CCc1cn(-c2ccccc2)nc1OCc1ccc(OCc2nc(-c3ccco3)oc2C)c(OC)c1)OCC [Example 100, diethyl 2-{3-[(4-{[2-(2-furyl)-5-methyl-1,3-oxazol-4-yl]methoxy}-3-methoxybenzyl)oxy]-1-phenyl-1H-pyrazol-4-yl}ethylphosphonate]			74%
CCOP(=O)(/C=C/c1cn(-c2ccccc2)nc1OCc1ccc(OCc2nc(-c3ccco3)oc2C)c(OC)c1)OCC [Example 116 (E form), diethyl (E)-2-{3-[(4-{[2-(2-furyl)-5-methyl-1,3-oxazol-4-yl]methoxy}-3-methoxybenzyl)oxy]-1-phenyl-1H-pyrazol-4-yl}ethenylphosphonate]			97%
CCOP(=O)(/C=C/c1cn(-c2ccccc2)nc1OCc1ccc(OCc2nc(-c3ccc(CC(=O)O)cc3)oc2C)c(OC)c1)OCC [Example 241, {4-[4-({4-[({4-[(E)-2-(diethoxyphosphoryl)ethenyl]-1-phenyl-1H-pyrazol-3-yl}oxy)methyl]-2-methoxyphenoxy}methyl)-5-methyl-1,3-oxazol-2-yl]phenyl}acetic acid]			113%
CCOP(=O)(/C=C/c1cn(-c2ccccc2)nc1OCc1ccc(OCc2nc(-c3cccc(CC(=O)O)c3)oc2C)c(OC)c1)OCC [Example 249, {3-[4-({4-[({4-[(E)-2-(diethoxyphosphoryl)ethenyl]-1-phenyl-1H-pyrazol-3-yl}oxy)methyl]-2-methoxyphenoxy}methyl)-5-methyl-1,3-oxazol-2-yl]phenyl}acetic acid]			108%
CCOP(=O)(/C=C/c1cn(-c2ccccc2)nc1OCc1ccc(OCc2nc(-c3cccc(-c4nnn[nH]4)c3)oc2C)c(OC)c1)OCC [Example 336, {(E)-2-(3-{[3-methoxy-4-({5-methyl-2-[3-(1H-tetrazol-5-yl)phenyl]-1,3-oxazol-4-yl}methoxy)benzyl]oxy}-1-phenyl-1H-pyrazol-4-yl)ethenyl}phosphonate diethyl]			102%

More lines, now with the values ahead:

melting point	inhibition at 10 µM (human PPARγ1; test compound 10^−5 M)	inhibition at 1 µM (human PPARγ1)	SMILES
167 to 168 °C		51%	COc1cc(COc2nn(-c3ccccc3)cc2C#N)ccc1OCc1nc(-c2ccco2)oc1C [Example 77, 3-[(4-{[2-(2-furyl)-5-methyl-1,3-oxazol-4-yl]methoxy)-3-methoxybenzyl)oxy]-1-phenyl-1H-pyrazole-4-carbonitrile]
		110%	CCc1nc(/C=C/c2cn(-c3ccccc3)nc2OCc2ccc(OCc3nc(-c4ccc(CC(=O)O)cc4)oc3C)c(OC)c2)cs1 [Example 337, {4-[4-({4-[({4-[(E)-2-(2-ethyl-1,3-thiazol-4-yl)ethenyl]-1-phenyl-1H-pyrazol-3-yl}oxy)methyl]-2-methoxyphenoxy}methyl)-5-methyl-1,3-oxazol-2-yl]phenyl}acetic acid]
		103%	COc1cc(COc2nn(-c3ccccc3)cc2/C=C/c2csc(C)n2)ccc1OCc1nc(-c2ccc(CC(=O)O)cc2)oc1C [Example 357, {4-[4-({2-methoxy-4-[({4-[(E)-2-(2-methyl-1,3-thiazol-4-yl)ethenyl]-1-phenyl-1H-pyrazol-3-yl}oxy)methyl]phenoxy}methyl)-5-methyl-1,3-oxazol-2-yl]phenyl}acetic acid]
		110%	COc1cc(COc2nn(-c3ccccc3)cc2/C=C/c2csc(C(C)C)n2)ccc1OCc1nc(-c2ccc(CC(=O)O)cc2)oc1C [Example 361, {4-[4-({4-[({4-[(E)-2-(2-isopropyl-1,3-thiazol-4-yl)ethenyl]-1-phenyl-1H-pyrazol-3-yl}oxy)methyl]-2-methoxyphenoxy}methyl)-5-methyl-1,3-oxazol-2-yl]phenyl}acetic acid]
		108%	CCc1nc(/C=C/c2cn(-c3ccccc3)nc2OCc2ccc(OCc3nc(-c4ccc(CC(=O)O)cc4)oc3C)c(OC)c2)co1 [Example 369, {4-[4-({4-[({4-[(E)-2-(2-ethyl-1,3-oxazol-4-yl)ethenyl]-1-phenyl-1H-pyrazol-3-yl}oxy)methyl]-2-methoxyphenoxy}methyl)-5-methyl-1,3-oxazol-2-yl]phenyl}acetic acid]
		111%	COc1cc(COc2nn(-c3ccccc3)cc2/C=C/c2coc(C(C)C)n2)ccc1OCc1nc(-c2ccc(CC(=O)O)cc2)oc1C [Example 370, {4-[4-({4-[({4-[(E)-2-(2-isopropyl-1,3-oxazol-4-yl)ethenyl]-1-phenyl-1H-pyrazol-3-yl}oxy)methyl]-2-methoxyphenoxy}methyl)-5-methyl-1,3-oxazol-2-yl]phenyl}acetic acid]
